In PubChem BioAssay AID1963869 (Molecular Pharmacology Branch, DTP, NCI, 2024):
Where “and” joins values, the source holds several entries; their conditions need not be identical. Equal values may be shown once.

Tested on: KRAS patient-derived spheroids with HUVEC/MSC, viability
Test: Anticancer human tumor 323965-272-R-J2-PDC patient-derived pancreatic carcinoma cell line growth inhibition [KRAS2]
Conditions: for viability, T/C: stronger effect = lower value
How it was run: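 KRAS-mutant tumor cells were grown as spheroids with HUVEC endothelial cells and human MSCs as stroma. Targeted agents were tested alone and with KRAS pathway inhibitors. Doses started at or near clinical Cmax, or 10 microM, descending half-log.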

[1] = curve of first compound, second compound 0.1 µM
[2] = curve of first compound, second compound 0.316 µM
[3] = curve of first compound, second compound 1 µM
[4] = curve of first compound, second compound 3.16 µM
[5] = curve of first compound, second compound 10 µM
[6] = second compound 0.1 µM, first compound 0.01 µM
[7] = second compound 0.1 µM, first compound 0.0316 µM
[8] = second compound 0.1 µM, first compound 0.1 µM
[9] = second compound 0.1 µM, first compound 0.316 µM
[10] = second compound 0.1 µM, first compound 1 µM
[11] = second compound 0.1 µM, first compound 3.16 µM
[12] = second compound 0.316 µM, first compound 0.01 µM
[13] = second compound 0.316 µM, first compound 0.0316 µM
[14] = second compound 0.316 µM, first compound 0.1 µM
[15] = second compound 0.316 µM, first compound 0.316 µM
[16] = second compound 0.316 µM, first compound 1 µM
[17] = second compound 0.316 µM, first compound 3.16 µM
[18] = second compound 1 µM, first compound 0.01 µM
[19] = second compound 1 µM, first compound 0.0316 µM
[20] = second compound 1 µM, first compound 0.1 µM
[21] = second compound 1 µM, first compound 0.316 µM
[22] = second compound 1 µM, first compound 1 µM
[23] = second compound 1 µM, first compound 3.16 µM
[24] = second compound 3.16 µM, first compound 0.01 µM
[25] = second compound 3.16 µM, first compound 0.0316 µM
[26] = second compound 3.16 µM, first compound 0.1 µM
[27] = second compound 3.16 µM, first compound 0.316 µM
[28] = second compound 3.16 µM, first compound 1 µM
[29] = second compound 3.16 µM, first compound 3.16 µM
[30] = second compound 10 µM, first compound 0.01 µM
[31] = second compound 10 µM, first compound 0.0316 µM
[32] = second compound 10 µM, first compound 0.1 µM
[33] = second compound 10 µM, first compound 0.316 µM
[34] = second compound 10 µM, first compound 1 µM
[35] = second compound 10 µM, first compound 3.16 µM
[36] = second compound 0.1 µM, first compound 10 µM
[37] = second compound 0.316 µM, first compound 10 µM
[38] = second compound 1 µM, first compound 10 µM
[39] = second compound 3.16 µM, first compound 10 µM
[40] = second compound 10 µM, first compound 10 µM
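Also: spheroids exposed to agents for 7 days.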
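For viability, T/C in this document: 100% = DMSO vehicle control viability.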

SMILES	IC50 [1]	IC50 [2]	IC50 [3]	IC50 [4]	IC50 [5]	viability, T/C [7]	viability, T/C [8]	viability, T/C [9]	viability, T/C [10]	viability, T/C [11]	viability, T/C [13]	viability, T/C [14]	viability, T/C [15]	viability, T/C [16]	viability, T/C [17]	viability, T/C [19]	viability, T/C [20]	viability, T/C [21]	viability, T/C [22]	viability, T/C [23]	further results
CC1COCCN1c1cc(-c2ccnn2C)c2ccnc(-c3ccn[nH]3)c2n1 (stereo unspecified) + CNCc1ccccc1-c1csc(C(C)Nc2nc(C)nc3cc(OC)c(OC)cc23)c1	20.7 nM	21.4 nM	22.3 nM	12.8 nM	< 10 nM	37.6%	22.5%	20.1%	18.2%	17.9%	35.8%	20.4%	19%	16.1%	17.1%	34.3%	17.9%	17.2%	14.9%	16.1%	viability, T/C [6]: 71.4%; viability, T/C [12]: 77.8%; viability, T/C [18]: 85.8%; viability, T/C [24]: 57.1%; viability, T/C [25]: 24.2%; viability, T/C [26]: 5.14%; viability, T/C [27]: 4.3%; viability, T/C [28]: 7.85%; viability, T/C [29]: 8.8%; viability, T/C [30]: 0.18%; viability, T/C [31]: 0.13%; viability, T/C [32]: 0.13%; viability, T/C [33]: 0.12%; viability, T/C [34]: 0.25%; viability, T/C [35]: 0.19%
COc1cc(Nc2ncc3c(n2)-c2ccc(Cl)cc2C(c2c(F)cccc2OC)=NC3)ccc1C(=O)O + CC1OCC2(CCN(c3cnc(Sc4ccnc(N)c4Cl)c(N)n3)CC2)C1N	89.9 nM	< 31.6 nM	< 31.6 nM	< 31.6 nM	< 31.6 nM	79.5%	47.3%	33.8%	44.3%	50.6%	57.2%	39.9%	30.8%	32.6%	39.1%	44.9%	26.6%	23.4%	26.6%	30.4%	viability, T/C [36]: 56.2%; viability, T/C [37]: 43.8%; viability, T/C [38]: 33.7%; viability, T/C [25]: 37.2%; viability, T/C [26]: 22.2%; viability, T/C [27]: 17.7%; viability, T/C [28]: 23%; viability, T/C [29]: 24.1%; viability, T/C [39]: 28.3%; viability, T/C [31]: 29.9%; viability, T/C [32]: 19.3%; viability, T/C [33]: 17.4%; viability, T/C [34]: 20.3%; viability, T/C [35]: 20.9%; viability, T/C [40]: 23.3%
CC1OCC2(CCN(c3cnc(Sc4ccnc(N)c4Cl)c(N)n3)CC2)C1N (stereo unspecified) + CNCc1ccccc1-c1csc(C(C)Nc2nc(C)nc3cc(OC)c(OC)cc23)c1	404 nM	202 nM	548 nM	351 nM	< 31.6 nM	77.4%	65.6%	53.4%	38.6%	28.7%	82.1%	55.4%	44.1%	41.6%	27.9%	101%	71.9%	60.5%	40.7%	35.1%	viability, T/C [36]: 17.8%; viability, T/C [37]: 25.9%; viability, T/C [38]: 33.4%; viability, T/C [25]: 83.5%; viability, T/C [26]: 65.8%; viability, T/C [27]: 51.3%; viability, T/C [28]: 40.8%; viability, T/C [29]: 27%; viability, T/C [39]: 25.5%; viability, T/C [31]: 0.33%; viability, T/C [32]: 0.17%; viability, T/C [33]: 0.15%; viability, T/C [34]: 0.14%; viability, T/C [35]: 0.13%; viability, T/C [40]: 0.18%
CC(=O)OC12COC1CC(O)C1(C)C(=O)C(O)C3=C(C)C(OC(=O)C(O)C(NC(=O)OC(C)(C)C)c4ccccc4)CC(O)(C(OC(=O)c4ccccc4)C21)C3(C)C (stereo unspecified) + CNCc1ccccc1-c1csc(C(C)Nc2nc(C)nc3cc(OC)c(OC)cc23)c1	< 10 nM	< 10 nM	< 10 nM	< 10 nM	< 10 nM	25.5%	24.1%	25.7%	26.5%	28.6%	24.3%	21.9%	21.8%	23%	25.7%	25.7%	28.4%	28.2%	32.7%	35.3%	viability, T/C [6]: 29%; viability, T/C [12]: 23.3%; viability, T/C [18]: 27.5%; viability, T/C [24]: 0.95%; viability, T/C [25]: 26.9%; viability, T/C [26]: 4.54%; viability, T/C [27]: 0.8%; viability, T/C [28]: 7.93%; viability, T/C [29]: 30.4%; viability, T/C [30]: 0.72%; viability, T/C [31]: 0.14%; viability, T/C [32]: 0.36%; viability, T/C [33]: 0.45%; viability, T/C [34]: 0.41%; viability, T/C [35]: 0.21%
CCNC(=O)CC1N=C(c2ccc(Cl)cc2)c2cc(OC)ccc2-n2c(C)nnc21 (stereo unspecified) + CC1OCC2(CCN(c3cnc(Sc4ccnc(N)c4Cl)c(N)n3)CC2)C1N	244 nM	146 nM	< 31.6 nM	< 31.6 nM	< 31.6 nM	74.6%	63.5%	44.9%	36.3%	28.6%	63.3%	57.8%	34.4%	28%	25.2%	45.6%	35.5%	27.2%	22.2%	11.9%	viability, T/C [36]: 27.4%; viability, T/C [37]: 22.6%; viability, T/C [38]: 7.8%; viability, T/C [25]: 16.2%; viability, T/C [26]: 20.8%; viability, T/C [27]: 14.3%; viability, T/C [28]: 13.1%; viability, T/C [29]: 6.89%; viability, T/C [39]: 4.84%; viability, T/C [31]: 16.6%; viability, T/C [32]: 16.3%; viability, T/C [33]: 14.9%; viability, T/C [34]: 8.18%; viability, T/C [35]: 6.22%; viability, T/C [40]: 3.88%
CC(=O)OC12COC1CC(O)C1(C)C(=O)C(O)C3=C(C)C(OC(=O)C(O)C(NC(=O)OC(C)(C)C)c4ccccc4)CC(O)(C(OC(=O)c4ccccc4)C21)C3(C)C (stereo unspecified) + C=CC(=O)N1CCN(c2nc(=O)n(-c3c(C)ccnc3C(C)C)c3nc(-c4c(O)cccc4F)c(F)cc23)C(C)C1	< 10 nM	< 10 nM	< 10 nM	< 10 nM	< 10 nM	21.7%	19.9%	19.2%	18.9%	22.2%	21.5%	21.6%	19.4%	20.9%	21.1%	19.2%	19.6%	17.4%	18.7%	19.7%	viability, T/C [6]: 22.7%; viability, T/C [12]: 21.9%; viability, T/C [18]: 21.3%; viability, T/C [24]: 19.7%; viability, T/C [25]: 21.9%; viability, T/C [26]: 17.6%; viability, T/C [27]: 19.6%; viability, T/C [28]: 18.9%; viability, T/C [29]: 18.5%; viability, T/C [30]: 21.3%; viability, T/C [31]: 19.6%; viability, T/C [32]: 19.8%; viability, T/C [33]: 15.6%; viability, T/C [34]: 16%; viability, T/C [35]: 16.7%
COC(=O)c1ccc2c(C(=Nc3ccc(N(C)C(=O)CN4CCN(C)CC4)cc3)c3ccccc3)c(O)[nH]c2c1																					viability, T/C (compound 0.0316 µM): 97.4% [middle of 5 runs]; viability, T/C (compound 0.1 µM): 102% [middle of 5 runs]; viability, T/C (compound 0.316 µM): 101% [middle of 5 runs]; viability, T/C (compound 1 µM): 98% [middle of 5 runs]; viability, T/C (compound 3.16 µM): 98.7% [middle of 5 runs]; IC50 (curve of compound): 7380 nM and > 10000 nM and 7570 nM
